{"source": "patent US20040224910A1", "about": "“Recombinant nematode nicotinic receptor and uses” (priority 1999, published 2004)", "biological_target": "T1, heterotrimeric UNC-63, UNC-29, LEV-1 receptor (Caenorhabditis elegans, UniProt P48181+Q27218+Q9N587)", "T1 construct": "used to generate a full length cDNA clone by 3′ RACE on Marathon cDNA; expressed in transfected cells; host or cells: Xenopus laevis oocytes (nuclear injection of pMT3 cDNA constructs)", "T1 sequence (P48181 27-493)": "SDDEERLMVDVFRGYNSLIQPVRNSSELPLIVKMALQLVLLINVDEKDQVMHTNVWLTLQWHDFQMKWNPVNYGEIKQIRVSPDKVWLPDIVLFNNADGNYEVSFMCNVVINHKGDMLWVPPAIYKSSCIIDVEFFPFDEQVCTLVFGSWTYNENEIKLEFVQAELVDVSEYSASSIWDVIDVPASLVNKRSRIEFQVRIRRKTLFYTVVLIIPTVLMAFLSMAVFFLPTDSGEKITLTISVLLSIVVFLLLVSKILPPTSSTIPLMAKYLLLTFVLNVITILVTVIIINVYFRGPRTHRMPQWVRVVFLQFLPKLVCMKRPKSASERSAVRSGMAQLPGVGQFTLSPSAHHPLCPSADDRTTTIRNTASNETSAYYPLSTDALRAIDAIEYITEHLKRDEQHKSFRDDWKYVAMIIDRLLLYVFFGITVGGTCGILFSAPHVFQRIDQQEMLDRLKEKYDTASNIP", "T1 sequence (Q27218 32-507)": "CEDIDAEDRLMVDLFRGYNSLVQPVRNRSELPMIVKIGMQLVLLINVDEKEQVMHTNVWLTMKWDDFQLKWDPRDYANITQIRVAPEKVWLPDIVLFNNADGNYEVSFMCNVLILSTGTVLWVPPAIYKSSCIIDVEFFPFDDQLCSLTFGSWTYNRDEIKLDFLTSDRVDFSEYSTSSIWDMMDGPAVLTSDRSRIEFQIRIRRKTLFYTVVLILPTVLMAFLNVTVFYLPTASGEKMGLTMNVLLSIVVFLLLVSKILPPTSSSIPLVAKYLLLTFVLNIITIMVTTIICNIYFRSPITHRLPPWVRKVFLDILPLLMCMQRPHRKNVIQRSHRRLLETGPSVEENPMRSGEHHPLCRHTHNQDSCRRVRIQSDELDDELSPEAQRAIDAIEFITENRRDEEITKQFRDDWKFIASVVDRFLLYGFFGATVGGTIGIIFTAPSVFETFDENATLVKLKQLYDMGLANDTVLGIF", "T1 sequence (Q9N587 24-502)": "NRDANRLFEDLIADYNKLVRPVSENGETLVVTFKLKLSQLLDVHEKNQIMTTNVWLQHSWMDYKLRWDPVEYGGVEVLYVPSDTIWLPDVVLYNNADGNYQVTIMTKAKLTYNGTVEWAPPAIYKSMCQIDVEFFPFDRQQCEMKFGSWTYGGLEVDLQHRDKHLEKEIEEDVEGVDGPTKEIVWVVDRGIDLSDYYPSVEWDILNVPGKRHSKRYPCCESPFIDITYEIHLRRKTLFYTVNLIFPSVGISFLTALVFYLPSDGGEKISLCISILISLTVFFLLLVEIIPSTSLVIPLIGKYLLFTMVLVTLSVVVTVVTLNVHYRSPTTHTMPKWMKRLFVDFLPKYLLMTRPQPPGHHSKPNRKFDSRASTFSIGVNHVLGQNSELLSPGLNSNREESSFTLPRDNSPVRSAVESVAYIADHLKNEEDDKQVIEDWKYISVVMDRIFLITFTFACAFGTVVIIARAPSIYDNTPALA", "experiment": "Two-electrode voltage-clamp of recombinant nAChR expressed in Xenopus laevis oocytes", "format": "cell-based, C. elegans", "conditions": "for agonist activity on the expressed receptor: holding potential -100 mV", "description": "Ovaries were surgically removed from anaesthetised mature female Xenopus laevis. The follicle layers were manually removed from healthy stage V and VI oocytes following a 15 min incubation with collagenase (type IA, 2 mg ml^−1) in a calcium-free version of standard oocyte saline. The composition of SOS was as follows (mM): NaCl 100, KCl 2, CaCl2 1.8, MgCl2 1 and HEPES 5; pH 7.6. In calcium-free saline, the CaCl2 was replaced by 1.8 mM BaCl2. […] The nucleus of each oocyte was injected with 20 nl of DNA (0.1 μg μl^−1). The injected oocytes were transferred to incubation medium composed of SOS supplemented with penicillin (100 units ml^−1), streptomycin (100 μg ml^−1), gentamycin (50 μg ml^−1) and 2.5 mM sodium pyruvate and placed at 4° C. for 30 min immediately after injection to enable recovery. Oocytes were maintained at 16° C. for 2-4 days prior to electrophysiological studies.\nOocytes were restrained with entomological pins in a Perspex chamber (80 μl volume) with a Sylgard base and perfused continuously (5 ml min^−1) with SOS using a gravity-fed system. Membrane currents were measured by the two-electrode voltage-clamp method, using 3M KCl filled electrodes (resistance=0.5-5 MΩ) and either a Geneclamp amplifier (Axon Instruments). The oocyte membrane potential was clamped at −100 mV. Signals were digitized by a TL-1 interface (Axon Instruments, U.S.A).", "note": "Entries after “also recorded” stand apart in the source; their conditions may differ.", "data": [{"molecule": "CN1CCCC1c1cccnc1", "note": "(centres unmarked) [nicotine]", "values": [{"measurement": "agonist activity on the expressed receptor", "setting": "Xenopus oocytes", "value": "partial agonists; also recorded: partial agonist activity"}]}, {"molecule": "CC(=O)OCC[N+](C)(C)C.[Cl-]", "note": "[ACh, Acetylcholine chloride]", "values": [{"measurement": "agonist activity on the expressed receptor", "setting": "Xenopus oocytes", "value": "full agonist"}]}, {"molecule": "c1ccc([C@H]2CN3CCSC3=N2)cc1", "note": "[levamisole]", "values": [{"measurement": "agonist activity on the expressed receptor", "setting": "Xenopus oocytes", "value": "partial agonists; also recorded: partial agonist activity"}]}, {"molecule": "CNC1(C)C2CCC(C2)C1(C)C", "note": "(centres unmarked) [Mecamylamine, mecamylamine]", "values": [{"measurement": "block of the agonist action of levamisole", "setting": "10 μM mecamylamine, Xenopus oocytes (FIG. 6)", "value": "blocked"}, {"measurement": "antagonism of ACh-induced currents", "setting": "10 μM, Xenopus oocytes", "value": "effective antagonist"}]}]}
